Source: patent US20250263376A1, “(E)-N-CINNAMOYLAMINOALKANOLS WITH MELANOGENESIS INHIBITORY ACTIVITY” (Uniwersytet Jagiellonski, priority 2024, published 2025)
Read-outs that look alike come from different tables or passages of the source.

Legend:
tyrosinase = conditions: cited from earlier work; for mechanism of tyrosinase inhibition: literature [6,7]
[1] = test system: B16-F10 murine melanoma cell line; assay: Cytotoxicity (MTT) in B16-F10 murine melanoma cells; format: cell-based; conditions: 48 h
Procedure: Cytotoxicity Assessment in the B16-F10 Murine Melanoma Cell Line (ATTC CRL-6745)—Preliminary Safety Assessment for Subsequent Studies
In order to determine safe doses of compounds for testing the inhibition of melanogenesis in a murine melanoma cell line, cytotoxicity tests were performed. Cytotoxicity was determined by the colorimetric method using MTT ([3-(4,5-dimethyl-2-thiazolyl)-2,5-diphenyl-2H-tetrazolium bromide, Sigma M5655). For this purpose, cells were transferred to 96-well plates in an amount of 5000/well. After 24 h of culture in an incubator in F10-Ham medium with 1% FBS, the tested compounds at various concentrations were added to the wells together with fresh medium. DMSO was added to the medium in a negative control. The MTT test was performed after further culture for 48 h. Then the medium was removed and the formed formazan crystals were dissolved in DMSO. The absorbance was measured at 570 nm in a plate reader and the result was compared to the control (DMSO), which was 100%. The percentage of viability was calculated using the formula: [AT/AC*100], where AT is the absorbance of the test sample, AC—absorbance of the control sample.

tyrosinase from mushroom [2] = biological target: T1, tyrosinase from mushroom (Agaricus bisporus, UniProt C7FF04); assay: Inhibition of commercial mushroom tyrosinase, substrate L-DOPA; format: biochemical; conditions: 500 μM; read-out: Tyrosinase inhibition with L-DOPA [%]
T1 sequence (C7FF04 2-392): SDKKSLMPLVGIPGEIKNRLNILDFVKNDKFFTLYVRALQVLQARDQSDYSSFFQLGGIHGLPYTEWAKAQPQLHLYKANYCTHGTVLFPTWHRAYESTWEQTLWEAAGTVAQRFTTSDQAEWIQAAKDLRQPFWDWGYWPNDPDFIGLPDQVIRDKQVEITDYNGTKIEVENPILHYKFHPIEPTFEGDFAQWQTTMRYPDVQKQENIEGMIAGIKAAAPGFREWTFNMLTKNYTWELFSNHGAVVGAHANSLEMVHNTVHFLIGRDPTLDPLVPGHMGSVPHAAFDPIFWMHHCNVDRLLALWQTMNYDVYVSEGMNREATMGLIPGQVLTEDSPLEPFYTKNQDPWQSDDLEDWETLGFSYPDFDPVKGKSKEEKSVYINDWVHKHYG
T1 sequence (G1K3P4 entry or part of it, further chain): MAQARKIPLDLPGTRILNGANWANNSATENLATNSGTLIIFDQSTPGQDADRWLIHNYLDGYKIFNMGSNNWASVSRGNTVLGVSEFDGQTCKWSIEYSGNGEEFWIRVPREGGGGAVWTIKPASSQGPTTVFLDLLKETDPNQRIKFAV
Procedure: (§1) Studies on the Inhibition of the Activity of Commercial Tyrosinase from Mushroom (Sigma: T3824)
(§2) The following substrates were used for the enzymatic reaction: L-tyrosine and L-3,4-dihyroxyphenylalanine (L-DOPA). Both substrates were used in independent experiments. According to the literature, the use of L-DOPA enables the assessment of tyrosinase diphenolase activity, and L-tyrosine—the tyrosinase monophenolase activity. The determinations were performed in 96-well plates, in each well there was placed: 170 μL or 127.5 μL of 50 mM phosphate buffer (pH=6.8) with tyrosinase (1U/well or 3U/well) and 10 μL of a solution of the tested compound in DMSO (the final concentration in the well was 500 μM, 250 μM or 125 μM). The negative control used 10 u L of pure solvent (DMSO). To initiate the reaction, an appropriate substrate was added: L-tyrosine (62.5 μL of solution in phosphate buffer) or L-DOPA (20 μL of solution in phosphate buffer). After a 25-minute incubation, the absorbance was measured at 475 nm using a microplate reader. The percentage of inhibition of tyrosinase activity was calculated using the formula: [(AC−AT)/[…], where AC—is the absorbance of the negative control, AT—is the absorbance of the sample containing the tested compound.

[3] = Lipophilicity coefficient RM0 by reversed phase thin layer chromatography; format: physicochemical; conditions: RP-18 TLC, methanol/phosphate buffer pH=7.4
Procedure: Confirmation of the identity and purity of the obtained compounds consisted in the registration and interpretation of 1H NMR and 13C NMR spectra (the spectra were recorded using an ECZR 500 MHZ (JEOL) series FT-NMR spectrophotometer), as well as the registration and interpretation of LC-MS spectra (the spectra were recorded using Acquita UPLC system (Waters) coupled with a Waters TQD mass spectrometer). The melting point was measured using the open capillary method in the IA9300 device (Electrothermal). The lipophilicity coefficient RM0 was determined by reversed phase thin layer chromatography. In the study, aluminum plates 20×20 cm covered with modified silica gel RP-18 F254 (Merck) were used as the solid phase. The mobile phase consisted of solutions of methanol and 100 mM phosphate buffer (pH=7.4), characterized by a variable methanol content ranging from 95 to 65% (v/v). The tested compounds were dissolved in methanol to obtain solutions with a concentration of 1 mg/mL. Then, […] of the solutions prepared in this way were transferred to the starting line on aluminum plates, which were then placed in chromatographic chambers previously saturated with mobile phase vapors for at least 1 hour. All activities, including the development of chromatograms, were carried out at room temperature. After developing the chromatograms to approximately 1-2 cm from the end of the plate, the plates were dried and then the distance traveled by the tested compounds was visualized under UV light (λ=254 nm). The experiment was performed in duplicate for the specified conditions. For all samples, Rf was calculated according to the formula Rf=a/b, where a—the distance traveled by the tested compound, b—the distance traveled by the mobile phase. Then, the RM parameter was calculated for all samples according to the formula RM=log (1/Rf−1), obtaining a linear relationship between the RM values and the methanol concentration in the mobile phase. The log P coefficient was also calculated using the following computer programs: ACD/ChemSketch 2020.1.2 and ChemDraw 20.0.0.41.

S. typhimurium TA98 = assay: Ames microplate test, TA98; format: cell-based, Salmonella typhimurium
Procedure: (§3) Bacteria were grown overnight in growth medium.

E. coli WP2 = assay: Ames microplate test, E. coli WP2;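 further: bacteria exposed to compound for 90 min at 37 °C in 24-well plates, then transferred with indicator medium to 384-well plates and incubated 48 h before yellow well counting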
Procedure: The study used the Ames microplate test (Ames MPF™ Penta 2 by Xenometrix, Allschwil, Switzerland). Growth medium, exposure medium, indicator medium, positive controls, hepatic microsomal fraction, NADP, glucose-6-phosphate, Salmonella typhimurium and Escherichia coli strains were components of the purchased experimental kit. Bacteria were grown overnight in growth medium. They were then exposed to the test compound at the appropriate concentration in exposure medium without or with the rat microsomal fraction S9 in 24-well plates for 90 min at 37° C. with shaking. Then, indicator medium was added to the wells and pipetted into 384-well plates, which were incubated for 48 hours at 37° C. without shaking. Results were assessed by counting the wells in which the medium turned yellow for each experimental condition.

S. typhimurium TA100 = assay: Ames microplate test, TA100; format: cell-based, Salmonella typhimurium
CHO-K1 cells = assay: Cytotoxicity (MTT) in CHO-K1 cells before the micronucleus test; format: cell-based, Chinese hamster; conditions: 24 hours
Procedure: The assay was performed using a Chinese hamster ovary cell line (CHO-K1) purchased from the American Type Culture Collection (ATCC). The cells were cultured in F-12K medium with the addition of 10% fetal bovine serum (FBS) and antibiotics (streptomycin/penicillin) in an incubator at 37° C. and 5% CO2 concentration). Before the actual micronucleus test, a cytotoxicity assessment was performed to ensure that the actual test was performed only at safe concentrations. For this purpose, cells were transferred to 96-well plates and incubated with the tested compounds for 24 hours. After this time, the MTT test was performed and cell viability was assessed in comparison to the control group (cells cultured with DMSO at the same concentration as in the case of the tested samples).

S. typhimurium TA1537 = assay: Ames microplate test, TA1537; format: cell-based, Salmonella typhimurium
Procedure: as §3

tyrosinase from mushroom [4] = biological target: T1, tyrosinase from mushroom; assay: Inhibition of commercial mushroom tyrosinase, substrate L-tyrosine; format: biochemical; conditions: 500 μM; read-out: Tyrosinase inhibition with L-tyrosine [%]
Procedure: as §1, §2

S. typhimurium TA1535 = assay: Ames microplate test, TA1535;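 further: bacteria exposed 90 min at 37 °C in exposure medium, then 48 h in indicator medium in 384-well plates, yellow (revertant) wells counted per condition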
[5] = literature [7], read-out: IC50, tyrosinase inhibition

**Q.** With `O=C(O)C=Cc1ccc(Cl)cc1Cl` [2,4-dichlorocinnamic acid] as the molecule, how does the “mechanism of tyrosinase inhibition” value (tyrosinase) read?
**A.** reversible non-competitive mechanism

**Q.** What about the IC50 (tyrosinase; [5]) of the same molecule?
**A.** 295 µM

**Q.** Which results are given for `O=C(O)C=Cc1ccccc1Cl` [2-Chlorocinnamic acid]?
**A.** mechanism of tyrosinase inhibition (tyrosinase): reversible non-competitive mechanism; IC50 (tyrosinase; [5]): 765 µM

**Q.** With `COc1ccc(C=CC(=O)O)cc1` [4-methoxycinnamic acid] as the molecule, how does the IC50 (tyrosinase; literature [6], read-out: IC50, tyrosinase diphenolase activity) read?
**A.** 420 µM

**Q.** Which “mechanism of tyrosinase inhibition” value (tyrosinase) does the source give for `O=C(O)C=Cc1ccccc1` [Cinnamic acid] here?
**A.** non-competitive inhibitor

**Q.** Which results are given for `CCC(O)CNC(=O)/C=C/c1ccc(Cl)cc1` (stereo not drawn) [Compound A-67, (2E)-3-(4-chlorophenyl)-N-(2-hydroxybutyl)prop-2-enamide]?
**A.** Cytotoxicity study in B16F10 cells, % viability ([1]; 150 μM): 73.6%; Cytotoxicity study in B16F10 cells, % viability ([1]; 200 μM): 87.8%; Cytotoxicity study in B16F10 cells, % viability ([1]; 250 μM): 84.4%; inhibition at 500 µM (tyrosinase from mushroom [2]): 60.8 ± 1.99%; RM0 [3]: 2.46; Increase in the number of yellow wells compared to the reference level, TA98 (S. typhimurium TA98; 0.5 mM, + S9): 0.31; Increase in the number of yellow wells compared to the reference level, TA98 (S. typhimurium TA98; 0.5 mM, without S9): 0.27; Increase in the number of yellow wells compared to the reference level, TA98 (S. typhimurium TA98; 1.0 mM, + S9): 0.94; Increase in the number of yellow wells compared to the reference level, TA98 (S. typhimurium TA98; 1.0 mM, without S9): 1.07; Increase in the number of yellow wells compared to the reference level, TA98 (S. typhimurium TA98; 2.0 mM, + S9): 1.04; Increase in the number of yellow wells compared to the reference level, TA98 (S. typhimurium TA98; 2.0 mM, without S9): 1.07; Increase in the number of yellow wells compared to the reference level, E. coli WP2 (E. coli WP2; 0.5 mM, + S9): 0.83; Increase in the number of yellow wells compared to the reference level, E. coli WP2 (E. coli WP2; 0.5 mM, without S9): 0.50; Increase in the number of yellow wells compared to the reference level, E. coli WP2 (E. coli WP2; 1.0 mM, + S9): 0.42; Increase in the number of yellow wells compared to the reference level, E. coli WP2 (E. coli WP2; 1.0 mM, without S9): 1.00; Increase in the number of yellow wells compared to the reference level, E. coli WP2 (E. coli WP2; 2.0 mM, + S9): 1.42; Increase in the number of yellow wells compared to the reference level, E. coli WP2 (E. coli WP2; 2.0 mM, without S9): 0.83; Increase in the number of yellow wells compared to the reference level, TA100 (S. typhimurium TA100; 0.5 mM, + S9): 0.78; Increase in the number of yellow wells compared to the reference level, TA100 (S. typhimurium TA100; 0.5 mM, without S9): 1.53; Increase in the number of yellow wells compared to the reference level, TA100 (S. typhimurium TA100; 1.0 mM, + S9): 0.64; Increase in the number of yellow wells compared to the reference level, TA100 (S. typhimurium TA100; 1.0 mM, without S9): 0.93; Increase in the number of yellow wells compared to the reference level, TA100 (S. typhimurium TA100; 2.0 mM, + S9): 0.31; Increase in the number of yellow wells compared to the reference level, TA100 (S. typhimurium TA100; 2.0 mM, without S9): 0.80; % Viability [mean], CHO-K1 (CHO-K1 cells; 100 μM): 96.0%; % Viability [mean], CHO-K1 (CHO-K1 cells; 150 μM): 90.3%; % Viability [mean], CHO-K1 (CHO-K1 cells; 200 μM): 84.0%; Increase in the number of yellow wells compared to the reference level, TA1537 (S. typhimurium TA1537; 0.5 mM, + S9): 1.00; Increase in the number of yellow wells compared to the reference level, TA1537 (S. typhimurium TA1537; 0.5 mM, without S9): 0.00; Increase in the number of yellow wells compared to the reference level, TA1537 (S. typhimurium TA1537; 1.0 mM, + S9): 1.33; Increase in the number of yellow wells compared to the reference level, TA1537 (S. typhimurium TA1537; 1.0 mM, without S9): 0.18; Increase in the number of yellow wells compared to the reference level, TA1537 (S. typhimurium TA1537; 2.0 mM, + S9): 0.00; Increase in the number of yellow wells compared to the reference level, TA1537 (S. typhimurium TA1537; 2.0 mM, without S9): 0.82; inhibition at 500 µM (tyrosinase from mushroom [4]): 79.2 ± 1.2%; Increase in the number of yellow wells compared to the reference level, TA1535 (S. typhimurium TA1535; 0.5 mM, + S9): 0.27; Increase in the number of yellow wells compared to the reference level, TA1535 (S. typhimurium TA1535; 0.5 mM, without S9): 0.30; Increase in the number of yellow wells compared to the reference level, TA1535 (S. typhimurium TA1535; 1.0 mM, + S9): 0.54; Increase in the number of yellow wells compared to the reference level, TA1535 (S. typhimurium TA1535; 1.0 mM, without S9): 0.45; Increase in the number of yellow wells compared to the reference level, TA1535 (S. typhimurium TA1535; 2.0 mM, + S9): 0.13; Increase in the number of yellow wells compared to the reference level, TA1535 (S. typhimurium TA1535; 2.0 mM, without S9): 1.04
